In patent US11957783B2, “Topical immunosensitizers to treat viral and fungal infections” (Squarex, LLC, priority 2018, dated 2024):

Tested on: peripheral blood mononuclear cells (PBMC)
Test: Cytokine and immune-function gene expression of PBMC in vitro (qRT-PCR, 41 immune-related genes)
Format: cell-based, human
Protocol: After a screening visit at which blood was drawn to test for IgG antibody against HSV-1 and subjects were interviewed for inclusion/exclusion criteria, selected subjects returned for blood draws on day 1. After the blood draw on day 1, subjects in group A only were dosed with SADBE. A petrolatum donut was applied with a cotton swab to form about a 1 cm diameter donut on skin on the inner aspect of the upper arm. Then a separate cotton swab was dipped in a 2% SADBE solution (w/v) in DMSO, and the swab was then used to apply about 10-20 mg of solution over about a 1 cm diameter circle within the petrolatum donut. Immediately after application, the application site was covered with TEGADERM. Subjects were advised to remove the TEGADERM and rinse and wipe the spot three hours later. The group A subjects then returned for blood draws on days 15 and 57 and were queried about adverse events on those dates.
PBMC were isolated using SepMate PBMC isolation tubes (Stem Cell Technologies, Vancouver, Canada) and Ficoll-Paque according to the manufacturer's instructions. PBMC were isolated and suspended in negative control medium at 2 million cells/ml. PBMC suspension (100 μL) was added to 100 μL of medium in quadruplicate in 96-well plates. The plates were prepared in advance and stored at −70° C. The wells were in five different conditions in quadruplicate with these final concentrations after addition of the 100 μL of PBMC suspension in negative control medium. • 1. Negative control in medium (RPMI with glutamine and pen/strep, supplemented with 10% human A/B serum). • 2. Medium plus 16 μg/ml protein from heat-inactivated HSV-1-infected Vero cell extracts. • 3. Medium plus heat-inactivated HSV-1 cell-free virus at a final 7.5 million pfu/ml. • 4. Medium plus Candida cell extract. (Greer item number M15A50, 20,000 pnu/ml allergenic extract mixed molds Candida albicans, was diluted 1/50 into medium). • 5. Positive control, medium plus 10 μg/ml concanavalin A.
Two plates were created for each subject at each collection point. One plate was incubated for 2 days at 37° C. in a humidified 5% CO2 atmosphere and then RNA was isolated from the pooled contents of the 4 wells of a given condition for a specific patient, and the RNA was stored at −70° C. and subsequently used for quantitative real time PCR analysis of gene expression of 41 immune-related genes.
As noted above, after 2 days of growth of the PBMC in a 37° C. humidified 5% CO2 incubator in a 96-well plate, four wells of a single condition (negative control, positive control, heat-inactivated HSV-1, HSV-1-infected cell extracts, or Candida extract) with cells from a single subject (200 μL in each well) were pooled, and the RNA was immediately isolated with Trizol reagent and chloroform by Qiagen RNeasy MiniElute clean up kit Qiagen cat #74204, according to manufacturer's instructions into a final volume of 13 μL, and then flash frozen on powdered dry ice, and stored at −70° C. in aliquots of 3 μL for RNA quantification and 10 μL for PCR analysis.
RNA was preamplified with the Qiagen RT2 PreAMP cDNA synthesis kit (Ref. 330451) and custom RT2 PreAmp primer mix (Ref. 330141) starting with about 50 ng RNA according to the procedure of RT preamp cDNA synthesis handbook date March 2011, pages 17-20. The amplification reactions (final 120 μL) were frozen at −70° C. and used for qPCR analysis the next day.
qPCR was done with the Qiagen RT PCR profiler gene analysis kit (catalog number 330451) using RT2 Sybr Green Rox qPCR Mastermix (24) (Part 330523) and Custom RT2 PCR array plates (Ref. 330171). For this 675 μL 2×RT2 SYBR green mastermix, 51 μL pre-AMP synthesis reaction, and 623 μL RNase free water were mixed, and then 25 μL of the mixture was added to 48 wells on the left or right half of the custom PCR plate. The PCR instrument was Applied Biosystems 7900HT fast real time PCR. […]

[1] = Group A, HSV-infected cell extracts

Question: Which results are given for CCCCOc1c(OCCCC)c(=O)c1=O [SADBE, 3,4-Dibutoxy-3-cyclobutene-1,2-dione]?
Answer: Ratio of absolute IFNG gene expression in group A vs. Groups B + C pooled (Candida, group A day 57 after SADBE): 2.684; CCL2 ratio of PBMC absolute gene expression day 15/day 1 (Group A, Candida): 0.73; CCL2 ratio of PBMC absolute gene expression day 57/day 1 (Group A, Candida): 1.16; CCL3 ratio of PBMC absolute gene expression day 15/day 1 (Group A, Candida): 0.33; CCL3 ratio of PBMC absolute gene expression day 57/day 1 (Group A, Candida): 1.79; CCL7 ratio of PBMC absolute gene expression day 15/day 1 (Group A, Candida): 0.66; CCL7 ratio of PBMC absolute gene expression day 57/day 1 (Group A, Candida): 2.03; CCR5 ratio of PBMC absolute gene expression day 15/day 1 (Group A, Candida): 1.16; CCR5 ratio of PBMC absolute gene expression day 57/day 1 (Group A, Candida): 1.42; CD80 ratio of PBMC absolute gene expression day 15/day 1 (Group A, Candida): 0.75; CD80 ratio of PBMC absolute gene expression day 57/day 1 (Group A, Candida): 1.57; CXCL2 ratio of PBMC absolute gene expression day 15/day 1 (Group A, Candida): 0.39; CXCL2 ratio of PBMC absolute gene expression day 57/day 1 (Group A, Candida): 1.10; CXCL5 ratio of PBMC absolute gene expression day 15/day 1 (Group A, Candida): 0.46; CXCL5 ratio of PBMC absolute gene expression day 57/day 1 (Group A, Candida): 1.45; CXCL9 ratio of PBMC absolute gene expression day 15/day 1 (Group A, Candida): 2.52; CXCL9 ratio of PBMC absolute gene expression day 57/day 1 (Group A, Candida): 14.21; CXCL10 ratio of PBMC absolute gene expression day 15/day 1 (Group A, Candida): 2.87; CXCL10 ratio of PBMC absolute gene expression day 57/day 1 (Group A, Candida): 12.8; CXCL11 ratio of PBMC absolute gene expression day 15/day 1 (Group A, Candida): 1.06; CXCL11 ratio of PBMC absolute gene expression day 57/day 1 (Group A, Candida): 2.53; DDX58 ratio of PBMC absolute gene expression day 15/day 1 (Group A, Candida): 1.08; DDX58 ratio of PBMC absolute gene expression day 57/day 1 (Group A, Candida): 1.29; FOXP3 ratio of PBMC absolute gene expression day 15/day 1 (Group A, Candida): 1.16; FOXP3 ratio of PBMC absolute gene expression day 57/day 1 (Group A, Candida): 2.01; GATA3 ratio of PBMC absolute gene expression day 15/day 1 (Group A, Candida): 1.12; GATA3 ratio of PBMC absolute gene expression day 57/day 1 (Group A, Candida): 0.28; ICAM1 ratio of PBMC absolute gene expression day 15/day 1 (Group A, Candida): 1.03; ICAM1 ratio of PBMC absolute gene expression day 57/day 1 (Group A, Candida): 1.27; IFNA1 ratio of PBMC absolute gene expression day 15/day 1 (Group A, Candida): 1.42; IFNA1 ratio of PBMC absolute gene expression day 57/day 1 (Group A, Candida): 2.13; IFNB1 ratio of PBMC absolute gene expression day 15/day 1 (Group A, Candida): 1.03; IFNB1 ratio of PBMC absolute gene expression day 57/day 1 (Group A, Candida): 0.93; IFNG ratio of PBMC absolute gene expression day 15/day 1 (Group A, Candida): 0.81; IFNG ratio of PBMC absolute gene expression day 57/day 1 (Group A, Candida): 8.54; IL1B ratio of PBMC absolute gene expression day 15/day 1 (Group A, Candida): 0.17; IL1B ratio of PBMC absolute gene expression day 57/day 1 (Group A, Candida): 1.73; IL1R1 ratio of PBMC absolute gene expression day 15/day 1 (Group A, Candida): 0.69; IL1R1 ratio of PBMC absolute gene expression day 57/day 1 (Group A, Candida): 0.9; IL1RN ratio of PBMC absolute gene expression day 15/day 1 (Group A, Candida): 1; IL1RN ratio of PBMC absolute gene expression day 57/day 1 (Group A, Candida): 1.91; IL2 ratio of PBMC absolute gene expression day 15/day 1 (Group A, Candida): 0.75; IL2 ratio of PBMC absolute gene expression day 57/day 1 (Group A, Candida): 6.31; IL4 ratio of PBMC absolute gene expression day 15/day 1 (Group A, Candida): 1.12; IL4 ratio of PBMC absolute gene expression day 57/day 1 (Group A, Candida): 1.52; IL5 ratio of PBMC absolute gene expression day 15/day 1 (Group A, Candida): 1.23; IL5 ratio of PBMC absolute gene expression day 57/day 1 (Group A, Candida): 1.10; IL8 ratio of PBMC absolute gene expression day 15/day 1 (Group A, Candida): 0.44; IL8 ratio of PBMC absolute gene expression day 57/day 1 (Group A, Candida): 1.89; IL10 ratio of PBMC absolute gene expression day 15/day 1 (Group A, Candida): 0.6; IL10 ratio of PBMC absolute gene expression day 57/day 1 (Group A, Candida): 1.12; IL12A ratio of PBMC absolute gene expression day 15/day 1 (Group A, Candida): 1.02; IL12A ratio of PBMC absolute gene expression day 57/day 1 (Group A, Candida): 1.64; IL12B ratio of PBMC absolute gene expression day 15/day 1 (Group A, Candida): 0.78; IL12B ratio of PBMC absolute gene expression day 57/day 1 (Group A, Candida): 3.61; IL13 ratio of PBMC absolute gene expression day 15/day 1 (Group A, Candida): 0.6; IL13 ratio of PBMC absolute gene expression day 57/day 1 (Group A, Candida): 4.28; IL15 ratio of PBMC absolute gene expression day 15/day 1 (Group A, Candida): 1.09; IL15 ratio of PBMC absolute gene expression day 57/day 1 (Group A, Candida): 2.18; IL16 ratio of PBMC absolute gene expression day 15/day 1 (Group A, Candida): 1.02; IL16 ratio of PBMC absolute gene expression day 57/day 1 (Group A, Candida): 0.81; JAK2 ratio of PBMC absolute gene expression day 15/day 1 (Group A, Candida): 1.1; JAK2 ratio of PBMC absolute gene expression day 57/day 1 (Group A, Candida): 1.68; LTA ratio of PBMC absolute gene expression day 15/day 1 (Group A, Candida): 1.15; LTA ratio of PBMC absolute gene expression day 57/day 1 (Group A, Candida): 1.94; LYZ ratio of PBMC absolute gene expression day 15/day 1 (Group A, Candida): 2.22; LYZ ratio of PBMC absolute gene expression day 57/day 1 (Group A, Candida): 0.93; MX1 ratio of PBMC absolute gene expression day 15/day 1 (Group A, Candida): 1.28; MX1 ratio of PBMC absolute gene expression day 57/day 1 (Group A, Candida): 1.34; NOD1 ratio of PBMC absolute gene expression day 15/day 1 (Group A, Candida): 1.19; NOD1 ratio of PBMC absolute gene expression day 57/day 1 (Group A, Candida): 1.18; SPP1 ratio of PBMC absolute gene expression day 15/day 1 (Group A, Candida): 2.32; SPP1 ratio of PBMC absolute gene expression day 57/day 1 (Group A, Candida): 7.34; STAT1 ratio of PBMC absolute gene expression day 15/day 1 (Group A, Candida): 1.12; STAT1 ratio of PBMC absolute gene expression day 57/day 1 (Group A, Candida): 3.36; STAT4 ratio of PBMC absolute gene expression day 15/day 1 (Group A, Candida): 1.07; STAT4 ratio of PBMC absolute gene expression day 57/day 1 (Group A, Candida): 1.76; TNF ratio of PBMC absolute gene expression day 15/day 1 (Group A, Candida): 0.85; TNF ratio of PBMC absolute gene expression day 57/day 1 (Group A, Candida): 1.22; TNFSF10 ratio of PBMC absolute gene expression day 15/day 1 (Group A, Candida): 1.02; TNFSF10 ratio of PBMC absolute gene expression day 57/day 1 (Group A, Candida): 1.52; TNFSF13B ratio of PBMC absolute gene expression day 15/day 1 (Group A, Candida): 1.14; TNFSF13B ratio of PBMC absolute gene expression day 57/day 1 (Group A, Candida): 1.62; CCL2 ratio of PBMC absolute gene expression day 15/day 1 [1]: 0.88; CCL2 ratio of PBMC absolute gene expression day 57/day 1 [1]: 1.21; CCL3 ratio of PBMC absolute gene expression day 15/day 1 [1]: 1.31; CCL3 ratio of PBMC absolute gene expression day 57/day 1 [1]: 4.60; CCL7 ratio of PBMC absolute gene expression day 15/day 1 [1]: 0.92; CCL7 ratio of PBMC absolute gene expression day 57/day 1 [1]: 0.75; CCR5 ratio of PBMC absolute gene expression day 15/day 1 [1]: 1.00; CCR5 ratio of PBMC absolute gene expression day 57/day 1 [1]: 0.93; CD80 ratio of PBMC absolute gene expression day 15/day 1 [1]: 0.90; CD80 ratio of PBMC absolute gene expression day 57/day 1 [1]: 0.93; CXCL2 ratio of PBMC absolute gene expression day 15/day 1 [1]: 1.02; CXCL2 ratio of PBMC absolute gene expression day 57/day 1 [1]: 2.79; CXCL5 ratio of PBMC absolute gene expression day 15/day 1 [1]: 1.24; CXCL5 ratio of PBMC absolute gene expression day 57/day 1 [1]: 6.03; CXCL9 ratio of PBMC absolute gene expression day 15/day 1 [1]: 1.12; CXCL9 ratio of PBMC absolute gene expression day 57/day 1 [1]: 0.91; CXCL10 ratio of PBMC absolute gene expression day 15/day 1 [1]: 0.82; CXCL10 ratio of PBMC absolute gene expression day 57/day 1 [1]: 0.49; CXCL11 ratio of PBMC absolute gene expression day 15/day 1 [1]: 0.53; CXCL11 ratio of PBMC absolute gene expression day 57/day 1 [1]: 0.31; DDX58 ratio of PBMC absolute gene expression day 15/day 1 [1]: 0.72; DDX58 ratio of PBMC absolute gene expression day 57/day 1 [1]: 0.94; FOXP3 ratio of PBMC absolute gene expression day 15/day 1 [1]: 1.15; FOXP3 ratio of PBMC absolute gene expression day 57/day 1 [1]: 1.11; GATA3 ratio of PBMC absolute gene expression day 15/day 1 [1]: 2.84; GATA3 ratio of PBMC absolute gene expression day 57/day 1 [1]: 2.6; ICAM1 ratio of PBMC absolute gene expression day 15/day 1 [1]: 1.05; ICAM1 ratio of PBMC absolute gene expression day 57/day 1 [1]: 0.77; IFNA1 ratio of PBMC absolute gene expression day 15/day 1 [1]: 0.80; IFNA1 ratio of PBMC absolute gene expression day 57/day 1 [1]: 1.29; IFNB1 ratio of PBMC absolute gene expression day 15/day 1 [1]: 0.65
